Patent US4709032A, “Isoquinolinesulfonamide derivatives” (Asahi Kasei Kogyo Kabushiki Kaisha, priority 1982, dated 1987)

Key:
mesenteric artery = assay: Relaxation of rabbit mesenteric artery contracted with KCl (isolated helical strip); assay type: cell-based; conditions: Oryctolagus cuniculus; concentration for 50% relaxation (complete relaxation = 100%); KCl 15-20 mM contraction; read-out: Relaxation of Mesenteric Artery ED50
Protocol: When, for example, N-(2-guanidinoethyl)-5-isoquinolinesulfonamide, i.e., compound (2) was added and a complete relaxation was designated 100%, the concentration which could bring about a relaxation of 50%, i.e., ED50 was 1 μM.
After a home bred rabbit of a Japanese species weighing about 3 Kg was subjected to bloodletting, resulting in death and then to abdominal incision, the mesenteric artery was taken out, cut into helicoids of 2 mm×25 mm and suspended in a 20 ml organ bath filled with a Krebs-Henseleit solution into which a mixed gas of 95% by volume of O2 and 5% by volume of CO2 was introduced and one end of the artery was connected with an isometric transducer. When a load of 1.5 g was applied to the artery, the contraction and the relaxation of the artery were recorded as a weight on the transducer (a product of Nippon Koden K.K., Japan, "FD Pickup TB-912T"). The relaxation of the mesenteric artery was observed by adding the isoquinolinesulfonamide derivatives and their pharmaceutically acceptable acid addition salts of this invention to the mesenteric artery at the condition of about one half of the maximum contraction with KCl concentration of 15-20 mM. When the complete relaxation of the mesenteric artery was designated 100%, the concentration of the isoquinolinesulfonamide derivatives and their pharmaceutically acceptable acid addition salts which brought about a relaxation of 50% is shown in Table 26.

[1] = Hypotensive action (change of blood pressure) in anesthetized dogs; assay type: in vivo, dog of mixed breed; conditions: intravenous
Protocol: (§1) The effect on the vasodilatation of the femoral and vertebral arteries was measured by anesthetizing a dog of mixed breed weighing 8 to 15 Kg by an intravenous administration of 35 mg/Kg of pentbarbital, providing an acute type probe (a product of Nippon Koden K.K., Japan) with the femoral and vertebral arteries, administering to the femoral vein through a polyethylene tube inserted into the femoral vein side chain, measuring the blood flow volume with an electromagnetic blood flowmeter (a product of Nippon Koden K.K., Japan, "MFV-1200") and measuring the change of blood pressure.

femoral artery = assay: Effect on blood flow volume in femoral artery of anesthetized dogs; assay type: in vivo, dog of mixed breed; conditions: intravenous
Protocol: (§2) The effect of the isoquinolinesulfonamide derivatives and the pharmaceutically acceptable acid addition salts of this invention on the vasodilatation of the femoral and vertebral arteries can be measured by anesthetizing a dog of mixed breed weighing 8 to 15 Kg by an intravenous administration of 35 mg/Kg of pentbarbital, providing an acute type probe (a product of Nippon Koden K.K., Japan) with the femoral and vertebral arteries, administering the isoquinolinesulfonamide derivatives and the pharmaceutically acceptable acid addition salts to the femoral vein through a polyethylene tube inserted into the femoral vein side chain and measuring the blood flow volume with an electromagnetic flowmeter (a product of Nippon Koden K.K., Japan, "MFV-1200"). 1 mg/Kg of N-(2-guanidinoethyl)-5-isoquinolinesulfonamide, i.e., Compound (2) was intravenously administered, the increased blood flow volumes in the vertebral artery and in the femoral artery were 95% and 37%. And the duration time is more than 30 minutes.
as §1

Acute toxicity in mice = conditions: mouse, in vivo; intravenous administration, male ddY-strain mice; hydrochloric acid salt
Protocol: The acute toxicity of the N-(2-guanidinoethyl)-5-isoquinolinesulfonamide dihydrochloride was measured by giving male ddY-strain mouse and rat an intravenous administration and an oral administration.
The acute toxicity of the hydrochloric acid salt of other compounds was measured by giving male ddY-strain mice an intravenous administration.

[2] = tested on: femoral and vertebral arteries; assay: Duration time of effect in anesthetized dogs (blood flow volume / blood pressure); assay type: in vivo, dog of mixed breed; conditions: intravenous
Protocol: as §2, §1

vertebral artery = assay: Effect on blood flow volume in vertebral artery of anesthetized dogs; assay type: in vivo, dog of mixed breed; conditions: intravenous
Protocol: as §2, §1

Row | Structure (SMILES) | EC50 (mesenteric artery) [µM] | also measured
1 | N=C(N)NC(CNS(=O)(=O)c1cccc2cnccc12)c1ccccc1 (centres unmarked) [Compound 25, N-(2-Guanidino-2-phenylethyl)-5-isoquinolinesulfonamide] | 10 | –
2 | CC1CN(S(=O)(=O)c2cccc3cnccc23)C(C)CN1C(=N)N (centres unmarked) [Compound 49, 4-Amidino-2,5-dimethyl-1-(5-isoquinolinesulfonyl)piperazine] | 1 | –
3 | N=C(N)NCCCCCCCCNS(=O)(=O)c1cccc2cnccc12 [Compound 7, N-(8-Guanidinooctyl)-5-isoquinolinesulfonamide] | 10 | –
4 | CC(CNS(=O)(=O)c1cccc2cnccc12)NC(=N)N (centres unmarked) [Compound 16, N-(2-Guanidinopropyl)-5-isoquinolinesulfonamide] | 3 | –
5 | N=C(N)NCC(CCNS(=O)(=O)c1cccc2cnccc12)c1ccccc1 (centres unmarked) [Compound 37, N-(4-Guanidino-3-phenylbutyl)-5-isoquinolinesulfonamide] | 10 | –
6 | N=C(N)NCC(CNS(=O)(=O)c1cccc2cnccc12)Cc1ccccc1 (centres unmarked) [Compound 34, N-(3-Guanidino-2-benzylpropyl)-5-Isoquinolinesulfonamide] | 2 | –
7 | N=C(N)NCCCCCNS(=O)(=O)c1cccc2cnccc12 [Compound 5, N-(5-Guanidinopentyl)-5-isoquinolinesulfonamide] | 3 | –
8 | N=C(N)NCC(Cc1ccccc1)NS(=O)(=O)c1cccc2cnccc12 (centres unmarked) [Compound 24, N-(2-Guanidino-1-benzylethyl)-5-isoquinolinesulfonamide] | 10 | –
9 | N=C(N)NCCCC(CNS(=O)(=O)c1cccc2cnccc12)Cc1ccccc1 (centres unmarked) [Compound 39, N-(5-Guanidino-2-benzylpentyl)-5-isoquinolinesulfonamide] | 13 | –
10 | N=C(N)NCCCCNS(=O)(=O)c1cccc2cnccc12 [Compound 4, N-(4-Guanidinobutyl)-5-isoquinolinesulfonamide] | 2 | –
11 | N=C(N)NCC(NS(=O)(=O)c1cccc2cnccc12)c1ccccc1 (centres unmarked) [Compound 23, N-(2-Guanidino-1-phenylethyl)-5-isoquinolinesulfonamide] | 8 | –
12 | O=S(=O)(NCCNC1=NCCCN1)c1cccc2cnccc12 [Compound 51, 2-[2-(5-Isoquinolinesulfonamido)ethylamino]-1,4,5,6-tetrahydropyrimidine] | 25 | –
13 | N=C(N)NCC(CNS(=O)(=O)c1cccc2cnccc12)c1ccccc1 (centres unmarked) [Compound 31, N-(3-Guanidino-2-phenylpropyl)-5-isoquinolinesulfonamide] | 2 | Average Decreased Blood Pressure ([1]; 1 (mm/Kg [sic])): 15 mmHg; Increased Blood Flow Volume in Femoral Artery (femoral artery; 1 mg/Kg (mm/Kg [sic])): 30%; LD50 (Acute toxicity in mice): 80 mg/kg; Duration Time ([2]; 1 mg/Kg (mm/Kg [sic])): 28 min; Increased Blood Flow Volume in Vertebral Artery (vertebral artery; 1 mg/Kg (mm/Kg [sic])): 75%
14 | CCN=C(NCC)NCCNS(=O)(=O)c1cccc2cnccc12 [Compound 54, N-[2-(2,3-Diethylguanidino)ethyl]-5-isoquinolinesulfonamide] | 12 | –
15 | CC(C)C(CNS(=O)(=O)c1cccc2cnccc12)NC(=N)N (centres unmarked) [Compound 19, N-(2-Guanidino-3-methylbutyl)-5-isoquinolinesulfonamide] | 15 | –
16 | N=C(N)NC(CCNS(=O)(=O)c1cccc2cnccc12)Cc1ccccc1 (centres unmarked) [Compound 35, N-(3-Guanidino-4-phenylbutyl)-5-isoquinolinesulfonamide] | 5 | –
17 | O=S(=O)(NCCNC1=NCCN1)c1cccc2cnccc12 [Compound 50, 2-[2-(5-Isoquinolinesulfonamido)ethylaminol]-2-imidazoline] | 20 | Average Decreased Blood Pressure ([1]; 1 (mm/Kg [sic])): 10 mmHg; Increased Blood Flow Volume in Femoral Artery (femoral artery; 1 mg/Kg (mm/Kg [sic])): 19%; Duration Time ([2]; 1 mg/Kg (mm/Kg [sic])): 21 min; Increased Blood Flow Volume in Vertebral Artery (vertebral artery; 1 mg/Kg (mm/Kg [sic])): 65%
18 | N=C(N)N1CCN(S(=O)(=O)c2cccc3cnccc23)CC1 [Compound 44, 4-Amidino-1-(5-isoquinolinesulfonyl)piperazine] | 0.6 | Average Decreased Blood Pressure ([1]; 0.5 (mm/Kg [sic])): 50 mmHg; Increased Blood Flow Volume in Femoral Artery (femoral artery; 0.5 (mm/Kg [sic])): 29%; LD50 (Acute toxicity in mice): 12 mg/kg; Duration Time ([2]; 0.5 (mm/Kg [sic])): > 30 min; Increased Blood Flow Volume in Vertebral Artery (vertebral artery; 0.5 (mm/Kg [sic])): 60%

Row | Structure (SMILES) | EC50 (mesenteric artery) [µM] | also measured
19 | N=C(N)NCCCCCCCCCCNS(=O)(=O)c1cccc2cnccc12 [Compound 8, N-(10-Guanidinodecyl)-5-isoquinolinesulfonamide] | 15 | –
20 | N=C(N)NCCCNS(=O)(=O)c1cccc2cnccc12 [Compound 3, N-(3-Guanidinopropyl)-5-isoquinolinesulfonamide] | 2 | –
21 | N=C(N)NCC(CCCNS(=O)(=O)c1cccc2cnccc12)Cc1ccccc1 (centres unmarked) [Compound 38, N-(5-Guanidino-4-benzylpentyl)-5-isoquinolinesulfonamide] | 11 | –
22 | CCC(CNS(=O)(=O)c1cccc2cnccc12)NC(=N)N (centres unmarked) [Compound 17, N-(2-Guanidinobutyl)-5-isoquinolinesulfonamide] | 10 | –
23 | CC(CCNS(=O)(=O)c1cccc2cnccc12)CNC(=N)N (centres unmarked) [Compound 36, N-(4-Guanidino-3-methylbutyl)-5-isoquinolinesulfonamide] | 5 | –
24 | CCN=C(N)NCCNS(=O)(=O)c1cccc2cnccc12 [Compound 55, N-[2,(3-Ethylguanidino)ethyl]-5-isoquinolinesulfonamide] | 5 | –
25 | CNC(=N)NCCNS(=O)(=O)c1cccc2cnccc12 [Compound 52, N-[2-(3-Methylguanidino)ethyl]-5-isoquinolinesulfonamide] | 7 | –
26 | N=C(N)NCCNS(=O)(=O)c1cccc2cnccc12 [Compound 2, N-(2-Guanidinoethyl)-5-isoquinolinesulfonamide] | 1 | Average Decreased Blood Pressure ([1]; 1 (mm/Kg [sic])): 32 mmHg; Increased Blood Flow Volume in Femoral Artery (femoral artery; 1 mg/Kg (mm/Kg [sic])): 37%; Duration Time ([2]; 1 mg/Kg (table prints mm/Kg), 1 mg/kg): > 30 min; Duration Time ([2]; 1 mg/Kg (table prints mm/Kg), listed as Compound (2), 1 mg/kg): more than 30 Min.; Increased Blood Flow Volume in Vertebral Artery (vertebral artery; 1 mg/Kg (mm/Kg [sic])): 95%
27 | CCCCC(CNC(=N)N)NS(=O)(=O)c1cccc2cnccc12 (centres unmarked) [Compound 13, N-[(1-Guanidinomethyl)pentyl]-5-isoquinolinesulfonamide] | 13 | –
28 | CN=C(NC)NCCNS(=O)(=O)c1cccc2cnccc12 [Compound 53, N-[2-(2,3-Dimethylguanidino)ethyl]-5-isoquinolinesulfonamide] | 10 | –
29 | CC(NC(=N)N)C(C)NS(=O)(=O)c1cccc2cnccc12 (centres unmarked) [Compound 41, N-(2-Guanidino-1-methylpropyl)-5-isoquinolinesulfonamide] | 8 | –
30 | CC(CNC(=N)N)NS(=O)(=O)c1cccc2cnccc12 (centres unmarked) [Compound 9, N-[(2-Guanidino-1-methyl)ethyl]-5-isoquinolinesulfonamide] | 3 | –
31 | CC(CNC(=N)N)CNS(=O)(=O)c1cccc2cnccc12 (centres unmarked) [Compound 28, N-(3-Guanidino-2-methylpropyl)-5-isoquinolinesulfonamide] | 3 | –
32 | CCC(CNC(=N)N)NS(=O)(=O)c1cccc2cnccc12 (centres unmarked) [Compound 10, N-[(1-Guanidinomethyl)propyl]-5-isoquinolinesulfonamide] | 5 | –
33 | CC(CCCCC(C)NS(=O)(=O)c1cccc2cnccc12)NC(=N)N (centres unmarked) [Compound 43, N-(6-Guanidino-1-methylheptyl)-5-isoquinolinesulfonamide] | 5 | Average Decreased Blood Pressure ([1]; 1 (mm/Kg [sic])): 15 mmHg; Increased Blood Flow Volume in Femoral Artery (femoral artery; 1 mg/Kg (mm/Kg [sic])): 32%; LD50 (Acute toxicity in mice): 66 mg/kg; Duration Time ([2]; 1 mg/Kg (mm/Kg [sic])): 25 min; Increased Blood Flow Volume in Vertebral Artery (vertebral artery; 1 mg/Kg (mm/Kg [sic])): 68%
34 | N=C(N)N1CCCN(S(=O)(=O)c2cccc3cnccc23)CC1 [Compound 45, 4-Amidino-1-(5-isoquinolinesulfonyl)homopiperazine] | 2 | –
35 | N=C(N)NCCCCCCNS(=O)(=O)c1cccc2cnccc12 [Compound 6, N-(6-Guanidinohexyl)-5-isoquinolinesulfonamide] | 4 | –
